The NIST ThermoML archive (doi:10.1021/je060271a)
Values joined by “and” are separate entries in the source; they are usually repeats but may differ in a detail not shown here. Equal entries are not always repeated.

Conditions: 303.16 K, Liquid, Vibrating tube method

CCCCCC(=O)OCC(COC(=O)CCCCC)(COC(=O)CCCCC)COC(=O)CCCCC [pentaerythritol tetrahexanoate]
Conditions	mass density
10818 kPa	995.1 kg/m3
10847 kPa	995.1 kg/m3
10876 kPa	995.3 kg/m3
10911 kPa	995.2 kg/m3
10941 kPa	995.3 kg/m3
10972 kPa	995.3 kg/m3
11002 kPa	995.2 kg/m3
11031 kPa	995.3 kg/m3
11066 kPa	995.3 kg/m3
11454 kPa	995.6 kg/m3
11487 kPa	995.6 kg/m3
11513 kPa	995.6 kg/m3
11540 kPa	995.6 kg/m3
11571 kPa	995.7 kg/m3
11596 kPa	995.6 kg/m3
11626 kPa	995.6 kg/m3
11790 kPa	995.8 kg/m3
11810 kPa	995.6 kg/m3
11820 kPa	995.9 kg/m3
11829 kPa	995.8 kg/m3
11924 kPa	995.8 kg/m3
11933 kPa	995.7 kg/m3
11944 kPa	995.8 kg/m3
11958 kPa	995.9 kg/m3
11979 kPa	995.9 kg/m3
11996 kPa	996 kg/m3
12017 kPa	996 kg/m3
12842 kPa	996.5 kg/m3
12884 kPa	996.5 kg/m3
13029 kPa	996.6 kg/m3
13048 kPa	996.5 kg/m3
13072 kPa	996.5 kg/m3
13092 kPa	996.6 kg/m3
13112 kPa	996.6 kg/m3
13136 kPa	996.7 kg/m3
13156 kPa	996.5 kg/m3
13176 kPa	996.6 kg/m3
13200 kPa	996.7 kg/m3
13220 kPa	996.6 kg/m3
13241 kPa	996.7 kg/m3
13266 kPa	996.7 kg/m3
13286 kPa	996.7 kg/m3
14924 kPa	997.7 kg/m3
14953 kPa	997.6 kg/m3
14977 kPa	997.7 kg/m3
15002 kPa	997.7 kg/m3
15135 kPa	997.8 kg/m3
15160 kPa	997.8 kg/m3
15189 kPa	997.8 kg/m3
15214 kPa	997.8 kg/m3
15239 kPa	997.8 kg/m3
15264 kPa	997.9 kg/m3
15318 kPa	997.9 kg/m3
15342 kPa	997.9 kg/m3
15371 kPa	997.9 kg/m3
15394 kPa	997.9 kg/m3
15422 kPa	997.9 kg/m3
15445 kPa	998 kg/m3
15468 kPa	998 kg/m3
15492 kPa	998 kg/m3
15520 kPa	998 kg/m3
15543 kPa	998 kg/m3
15567 kPa	997.9 kg/m3
15595 kPa	998 kg/m3
15618 kPa	998 kg/m3
15865 kPa	998.4 kg/m3
16816 kPa	998.8 kg/m3
17240 kPa	999 kg/m3
17241 kPa	999 kg/m3
17243 kPa	999 kg/m3
17245 kPa	999 kg/m3
17258 kPa	999.1 kg/m3
17279 kPa	999 kg/m3
17302 kPa	999 kg/m3
17313 kPa	999 kg/m3
17343 kPa	999.1 kg/m3
17353 kPa	999.1 kg/m3 and 999 kg/m3
17354 kPa	999.1 kg/m3 and 999.2 kg/m3
17601 kPa	999.3 kg/m3
17625 kPa	999.2 kg/m3
17654 kPa	999.2 kg/m3
17675 kPa	999.2 kg/m3
17704 kPa	999.3 kg/m3
17727 kPa	999.3 kg/m3
17750 kPa	999.5 kg/m3
17777 kPa	999.3 kg/m3
17799 kPa	999.3 kg/m3
17825 kPa	999.3 kg/m3
17847 kPa	999.3 kg/m3
17869 kPa	999.3 kg/m3
17891 kPa	999.4 kg/m3
18682 kPa	999.8 kg/m3
18706 kPa	999.9 kg/m3
18735 kPa	999.9 kg/m3
18759 kPa	999.9 kg/m3
18784 kPa	999.9 kg/m3
18808 kPa	1000 kg/m3
18838 kPa	999.9 kg/m3
18862 kPa	1000 kg/m3
18892 kPa	1000 kg/m3
23429 kPa	1002.6 kg/m3
23459 kPa	1002.6 kg/m3
23495 kPa	1002.6 kg/m3
23525 kPa	1002.6 kg/m3
23561 kPa	1002.7 kg/m3
23592 kPa	1002.6 kg/m3
23622 kPa	1002.8 kg/m3
23653 kPa	1002.7 kg/m3
23690 kPa	1002.8 kg/m3
23720 kPa	1002.8 kg/m3
23757 kPa	1002.7 kg/m3
23788 kPa	1002.8 kg/m3
23820 kPa	1002.9 kg/m3
23856 kPa	1002.8 kg/m3
23888 kPa	1002.8 kg/m3
23920 kPa	1002.9 kg/m3
23958 kPa	1002.9 kg/m3
23990 kPa	1002.8 kg/m3
24022 kPa	1002.9 kg/m3
24054 kPa	1002.8 kg/m3
24093 kPa	1003 kg/m3
24125 kPa	1003 kg/m3
24164 kPa	1003 kg/m3
24196 kPa	1003.1 kg/m3
24226 kPa	1003 kg/m3
24255 kPa	1003.1 kg/m3
24419 kPa	1003.2 kg/m3
24447 kPa	1003.2 kg/m3
24481 kPa	1003.2 kg/m3
24509 kPa	1003.2 kg/m3
24537 kPa	1003.1 kg/m3
24571 kPa	1003.3 kg/m3
24599 kPa	1003.3 kg/m3
24628 kPa	1003.3 kg/m3
24656 kPa	1003.4 kg/m3
24691 kPa	1003.3 kg/m3
24720 kPa	1003.3 kg/m3
24749 kPa	1003.3 kg/m3
24778 kPa	1003.3 kg/m3
24812 kPa	1003.4 kg/m3
24935 kPa	1003.4 kg/m3
25029 kPa	1003.4 kg/m3
25058 kPa	1003.4 kg/m3
25094 kPa	1003.6 kg/m3
